Results on 1 compound are retold here after patent US6537527B1, “Skin lightening compositions” (Children's Hospital Medical Center, priority 1994, dated 2003).

This series can be described thus: Stability under selective acid hydrolysis in pH 5 buffer. It counts as physicochemical. The note with it: pH 5 buffer solution. On the procedure:
To a stirred suspension comprising the benzyl protected intermediate (1.0 equiv.), 5% Pd/C (0.07 equiv.) and methanol is added 55% hydrazine hydrate (˜20 equiv.). The reaction mixture is slowly heated and maintained at reflux under an inert atmosphere until TLC analysis indicates complete consumption of starting material. Reaction mixture is cooled to room temperature, filtered through celite to remove catalyst and volatiles removed in-vacuo. Residue is then subjected to low pressure column chromatography with 7:3 hexane:ethyl acetate as eluent. Composition and purity of isolated white solid as determined by ^1H and ^13C NMR is consistent with the brominated compound shown.

Take `Oc1ccc(O[C@H]2OCCC[C@@H]2Br)cc1` [Iii]: the “stability to acid hydrolysis” value is recorded as “stable under these conditions”.
